Experimental data reported in patent US10130615B2, “Benzomorphan analogs and the use thereof” (priority 2014, dated 2018).
Read-outs that look alike come from different tables or passages of the source.

Columns and labels:
κ-opioid receptor [1] = molecular target: T1, κ-opioid receptor (Homo sapiens, UniProt P41145); experiment: κ-opioid receptor GTPγS functional assay, U2OS cells; assay type: biochemical; design: expressed in transfected cells; host or cells: U-2 OS
Description: (§1) Plates were incubated for 30 min at a temperature of about 25° C. with shaking.

κ-opioid receptor [2] = molecular target: T1, κ-opioid receptor; experiment: κ-opioid receptor β-Arr2 activity response, U2OS cells; assay type: cell-based; design: expressed in transfected cells; host or cells: U-2 OS
κ-opioid receptor [3] = molecular target: T1, κ-opioid receptor; experiment: κ-opioid receptor radioligand binding assay ([3H]-U69,593); design: expressed in transfected cells; host or cells: HEK-293
Description: κ-opioid Receptor Binding Assay Procedures: Membranes from recombinant HEK-293 cells expressing the human κ opioid receptor (κ) (cloned in house) were prepared by lysing cells in ice cold hypotonic buffer (2.5 mM MgCl2, 50 mM HEPES, pH 7.4) (10 mL/10 cm dish) followed by homogenization with a tissue grinder/Teflon pestle. Membranes were collected by centrifugation at 30,000×g for 15 min at 4° C. and pellets were resuspended in hypotonic buffer to a final concentration of 1-3 mg/mL. Protein concentrations were determined using the BioRad protein assay reagent with bovine serum albumen as standard. Aliquots of κ receptor membranes were stored at −80° C.
Radioligand dose displacement assays used 0.4 nM [^3H]-U69,593 (GE Healthcare, Piscataway, N.J.; 40 Ci/mmole) with 15 μg membrane protein (recombinant κ opioid receptor expressed in HEK 293 cells; in-house prep) in a final volume of 200 μl binding buffer (5% DMSO, 50 mM Trizma base, pH 7.4). Non-specific binding was determined in the presence of 10 μM unlabeled naloxone or U69,593. All reactions were performed in 96-well polypropylene plates for 1 hr at a temperature of about 25° C.

κ-opioid receptor [4] = molecular target: T1, κ-opioid receptor; experiment: κ-opioid receptor [35S]GTPγS functional assay, HEK-293 or CHO cells; assay type: biochemical; design: expressed in transfected cells; host or cells: HEK-293; conditions: for Emax: relative to U69,593
Description: as §1

μ-opioid receptor [5] = molecular target: T2, μ-opioid receptor (Homo sapiens, UniProt P35372); experiment: μ-opioid receptor radioligand binding assay ([3H]-diprenorphine); design: purchased Perkin Elmer, Shelton, Conn; host or cells: HEK-293 or CHO
Description: μ-opioid Receptor Binding Assay Procedures: Radioligand dose-displacement binding assays for μ-opioid receptors used 0.3 nM [^3H]-diprenorphine (Perkin Elmer, Shelton, Conn.), with […] membrane protein/well in a final volume of 500 μl binding buffer (10 mM MgCl2, 1 mM EDTA, 5% DMSO, 50 mM HEPES, pH 7.4). Reactions were carried out in the absence or presence of increasing concentrations of unlabeled naloxone. All reactions were conducted in 96-deep well polypropylene plates for 2 hr at room temperature. […] The data were analyzed using the one-site competition curve fitting functions in GraphPad PRISM™ v. 3.0 or higher (San Diego, Calif.), or an in-house function for one-site competition curve-fitting.

μ-opioid receptor [6] = molecular target: T2, μ-opioid receptor; experiment: μ-opioid receptor GTPγS functional assay, U2OS cells; conditions: for Emax: read-out: GTPγS μ Emax
μ-opioid receptor [7] = molecular target: T2, μ-opioid receptor; experiment: biochemical; design: purchased Perkin Elmer, Shelton, Conn; host or cells: HEK-293 or CHO; conditions: HEK-293 or CHO cells; for EC50: read-out: GTPγS μ EC50; for Emax: relative to DAMGO, read-out: GTPγS μ Emax
μ-opioid receptor [8] = molecular target: T2, μ-opioid receptor; experiment: cell-based; design: purchased Perkin Elmer, Shelton, Conn; conditions: U2OS cells; for Emax: read-out: β-Arr2 μ Emax
[9] = U2OS cells, read-out: GTPγS κ EC50
[10] = U2OS cells, read-out: β-Arr2 κ EC50
[11] = HEK-293 or CHO cells, read-out: Ki (nM) Opioid Receptor κ
[12] = HEK-293 or CHO cells, read-out: GTPγS κ EC50
[13] = HEK-293 or CHO cells, read-out: Ki (nM) Opioid Receptor μ

T1 sequence (P41145 whole entry): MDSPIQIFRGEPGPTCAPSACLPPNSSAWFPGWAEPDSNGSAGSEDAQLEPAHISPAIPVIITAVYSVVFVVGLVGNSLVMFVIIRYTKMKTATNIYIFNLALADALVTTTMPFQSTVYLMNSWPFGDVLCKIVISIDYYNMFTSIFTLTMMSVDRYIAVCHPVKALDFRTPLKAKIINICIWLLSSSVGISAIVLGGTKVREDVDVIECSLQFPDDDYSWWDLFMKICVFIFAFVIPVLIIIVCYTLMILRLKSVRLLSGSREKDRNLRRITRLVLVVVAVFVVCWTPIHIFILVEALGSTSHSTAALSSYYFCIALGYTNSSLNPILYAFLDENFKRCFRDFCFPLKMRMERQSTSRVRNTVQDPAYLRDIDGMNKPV
T2 sequence (P35372 whole entry, species assumed): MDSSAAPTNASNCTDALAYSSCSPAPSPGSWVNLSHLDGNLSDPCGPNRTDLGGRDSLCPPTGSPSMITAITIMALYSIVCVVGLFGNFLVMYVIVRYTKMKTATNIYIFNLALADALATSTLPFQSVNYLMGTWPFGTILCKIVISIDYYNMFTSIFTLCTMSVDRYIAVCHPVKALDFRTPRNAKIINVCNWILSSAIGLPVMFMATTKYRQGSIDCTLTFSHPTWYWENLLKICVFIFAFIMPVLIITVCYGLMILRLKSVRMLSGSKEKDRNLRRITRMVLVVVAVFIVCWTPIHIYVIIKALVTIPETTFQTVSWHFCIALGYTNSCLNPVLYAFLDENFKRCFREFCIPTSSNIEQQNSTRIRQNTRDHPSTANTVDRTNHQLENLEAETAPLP

| SMILES | Emax (κ-opioid receptor [1]; U2OS cells) [%] | EC50 (κ-opioid receptor [1]; [9]) [nM] | Emax (κ-opioid receptor [2]; U2OS cells) [%] | EC50 (κ-opioid receptor [2]; [10]) [nM] | Ki (κ-opioid receptor [3]; [11]) [nM] | EC50 (κ-opioid receptor [4]; [12]) [nM] | Emax (κ-opioid receptor [4]; HEK-293 or CHO cells) [%] | Ki (μ-opioid receptor [5]; [13]) [nM] | EC50 (μ-opioid receptor [6]) [nM] | Emax (μ-opioid receptor [6]) [%] | EC50 (μ-opioid receptor [7]) [nM] | Emax (μ-opioid receptor [7]) [%] | Emax (μ-opioid receptor [8]) [%] | EC50 (κ-opioid receptor [1]) [nM] | EC50 (κ-opioid receptor [2]) [nM] | Ki (κ-opioid receptor [3]) [nM] | EC50 (κ-opioid receptor [4]) [nM] | Ki (μ-opioid receptor [5]) [nM] | EC50 (μ-opioid receptor [8]; read-out: β-Arr2 μ EC50) [nM] |
| --- | --- | --- | --- | --- | --- | --- | --- | --- | --- | --- | --- | --- | --- | --- | --- | --- | --- | --- | --- |
| COc1ccc2c(c1)[C@@]1(CCOCc3ccccc3)CCN(CC3CC3)[C@@H](C2)[C@H]1C [Compound 44, (2S,6R,11S)-6-(2-(benzyloxy)ethyl)-3-(cyclopropylmethyl)-8-methoxy-11-methyl-1,2,3,4,5,6-hexahydro-2,6-methanobenzo[d]azocine] | 79.3 ± 3.38 | 327 ± 50.5 | 102 ± 11.6 | 10300 ± 1050 | 118 ± 8.52 | 854 ± 240 | 32 ± 0.58 | 1840 ± 222 |  |  |  |  |  |  |  |  |  |  |  |
| COc1ccc2c(c1)[C@]1(CCNC(=O)CN)CCN(CC3CC3)[C@H](C2)[C@@H]1C [Compound 33, 2-amino-N-(2-((2R,6R,11R)-3-(cyclopropylmethyl)-8-methoxy-11-methyl-2,3,4,5-tetrahydro-2,6-methanobenzo[d]azocin-6(1H)-yl)ethyl)acetamide] | 108 ± 3.38 | 4.93 ± 1.06 | 42 ± 4 | 12.8 ± 4.1 | 1.04 ± 0.071 | 61.2 ± 20.1 | 113 ± 1 | 936 ± 189 | 1170 ± 247 | 56 ± 3.06 | 356 ± 111 | 92.7 ± 6.57 |  |  |  |  |  |  |  |
| COc1ccc2c(c1)[C@]1(CCO)CCN(CC3CC3)[C@H](C2)[C@@H]1C [Compound 43, 2-((2R,6S,11R)-3-(cyclopropylmethyl)-8-methoxy-11-methyl-2,3,4,5-tetrahydro-2,6-methanobenzo[d]azocin-6(1H)-yl)ethan-1-ol] | 102 ± 3.71 |  | 59.3 ± 3.18 |  |  |  | 97.7 ± 5.36 |  | 99 ± 5.84 | 107 ± 5.83 | 1150 ± 199 | 22 ± 1.58 | -1 | 17.8 ± 1.45 | 494 ± 140 | 3.63 ± 0.7 | 355 ± 63.6 | 233 ± 46.9 |  |
| C[C@H]1[C@H]2Cc3ccc(O)cc3[C@]1(CCCCN[C@@H](Cc1ccccc1)C(N)=O)CCN2CC1CC1 [Compound 23, (S)-2-((4-((2R,6R,11R)-3-(cyclopropyl-methyl)-8-hydroxy-11-methyl-2,3,4,5-tetrahydro-2,6-methanobenzo[d]azocin-6(1H)-yl)butyl)amino)-3-phenyl-propanamide] | 104 ± 4.06 | 0.079 ± 0.01 | 30 ± 0.58 | 0.16 ± 0.055 | 0.048 ± 0.01 | 1.49 ± 0.58 | 99 ± 6.35 | 0.2 ± 0.012 | 0.28 ± 0.073 | 56 ± 3.06 |  | 1 | -1.5 |  |  |  |  |  |  |
| COc1ccc2c(c1)[C@]1(CCOCc3ccccc3)CCN(CC3CC3)[C@H](C2)[C@@H]1C [Compound 45, (2R,6S,11R)-6-(2-(benzyloxy)ethyl)-3-(cyclopropylmethyl)-8-methoxy-11-methyl-1,2,3,4,5,6-hexahydro-2,6-methanobenzo[d]azocine] | 96.3 ± 5.17 | 0.95 ± 0.14 | 84 ± 2.08 | 26.7 ± 8.55 | 0.16 ± 0.03 | 16.3 ± 0.74 | 104 ± 5.03 | 543 ± 116 | 38 ± 2.09 | 103 ± 6.47 | 267 ± 20.1 | 16.3 ± 0.88 | 1.33 ± 0.33 |  |  |  |  |  |  |
| C[C@H]1[C@H]2Cc3ccc(O)cc3[C@]1(CCCC(N)=O)CCN2CC1CCC1 [Compound 29, 4-((2R,6R,11R)-3-(cyclobutylmethyl)-8-hydroxy-11-methyl-2,3,4,5-tetrahydro-2,6-methanobenzo[d]azocin-6(1H)-yl)butanamide] | 108 ± 1.2 | 0.39 ± 0.016 | 45 ± 3 | 2.06 ± 0.32 | 0.12 ± 0.019 | 7.6 ± 1.67 | 87.7 ± 3.18 | 1.82 ± 0.57 | 2.65 ± 0.89 | 41.3 ± 4.91 |  | 1 | -1.5 |  |  |  |  |  |  |
| C[C@H]1[C@H]2Cc3ccc(O)cc3[C@]1(CCCC(=O)N(C)C)CCN2CC1CCC1 [Compound 28, 4-((2R,6R,11R)-3-(cyclobutylmethyl)-8-hydroxy-11-methyl-2,3,4,5-tetrahydro-2,6-methanobenzo[d]azocin-6(1H)-yl)-N,N-dimethylbutanamide] | 104 ± 2.85 | 0.49 ± 0.016 | 45 ± 2.08 | 2.37 ± 0.62 | 0.22 ± 0.056 | 4.58 ± 0.38 | 95.3 ± 1.45 | 1.45 ± 0.013 | 2.71 ± 0.67 | 57.3 ± 6.57 |  | 1 | 3.7 ± 0.49 |  |  |  |  |  | 30.5 ± 4.44 |
| COC(=O)[C@H](CCCCN)NCCCC[C@]12CCN(CC3CC3)[C@H](Cc3ccc(O)cc31)[C@@H]2C [Compound 26, methyl (4-((2R,6R,11R)-3-(cyclopropyl-methyl)-8-hydroxy-11-methyl-2,3,4,5-tetrahydro-2,6-methanobenzo[d]azocin-6(1H)-yl)butyl)-L-lysinate] | 102 ± 3.48 | 0.14 | 17.5 ± 2.72 | 0.081 ± 0.019 | 0.053 | 0.19 ± 0.058 | 51 ± 2.04 | 0.73 ± 0.1 | 0.51 ± 0.054 | 40 ± 1.73 |  | 0.33 ± 0.67 | 0 |  |  |  |  |  |  |
| COc1ccc2c(c1)[C@]1(CCNC3(C(=O)O)CC3)CCN(CC3CC3)[C@H](C2)[C@@H]1C [Compound 34, 1-((2-((2R,6R,11R)-3-(cyclopropyl-methyl)-8-methoxy-11-methyl-2,3,4,5-tetrahydro-2,6-methanobenzo[d]azocin-6(1H)-yl)ethyl)amino)cyclopropane-1-carboxylic acid] |  |  |  |  | 286 ± 2.93 | 7900 ± 2010 | 81.3 ± 10.2 | 1470 ± 177 |  |  | 2880 ± 310 | 70.3 ± 3.71 |  |  |  |  |  |  |  |
| CC(C)[C@H](NCC[C@@]12CCN(CC3CC3)[C@@H](Cc3ccc(O)cc31)[C@H]2C)C(=O)O [Compound 42, (2-((2S,6S,11S)-3-(cyclopropylmethyl)-8-hydroxy-11-methyl-2,3,4,5-tetrahydro-2,6-methanobenzo[d]azocin-6(1H)-yl)ethyl)-L-valine] |  |  |  |  | 2620 ± 729 |  |  | 4610 ± 551 |  |  | 2390 ± 230 | 56 ± 2.52 |  |  |  |  |  |  |  |
| COC(=O)[C@@H](NCC[C@@]12CCN(CC3CC3)[C@@H](Cc3ccc(OC)cc31)[C@H]2C)C(C)C [Compound 37, methyl (2-((2S,6S,11S)-3-(cyclopropyl-methyl)-8-methoxy-11-methyl-2,3,4,5-tetrahydro-2,6-methanobenzo[d]azocin-6(1H)-yl)ethyl)-L-valinate] |  |  |  |  | 8990 ± 2060 |  |  | 13900 |  |  | 9390 ± 820 | 19.3 ± 2.33 |  |  |  |  |  |  |  |
| COc1ccc2c(c1)[C@]1(CCN[C@@H](C)C(=O)O)CCN(CC3CC3)[C@H](C2)[C@@H]1C [Compound 40, (2-((2R,6R,11R)-3-(cyclopropyl-methyl)-8-methoxy-11-methyl-2,3,4,5-tetrahydro-2,6-methanobenzo[d]azocin-6(1H)-yl)ethyl)-L-ananine] | 115 ± 1.73 | 542 ± 13.1 |  |  | 248 ± 95.7 | 7890 ± 1340 | 86.3 ± 7.54 | 871 ± 211 |  |  | 1660 ± 245 | 77.7 ± 6.12 |  |  |  |  |  |  |  |
| COc1ccc2c(c1)[C@]1(CCNCC(=O)O)CCN(CC3CC3)[C@H](C2)[C@@H]1C [Compound 36, (2-((2R,6R,11R)-3-(cyclopropyl-methyl)-8-methoxy-11-methyl-2,3,4,5-tetrahydro-2,6-methanobenzo[d]azocin-6(1H)-yl)ethyl)glycine] |  |  |  |  | 133 ± 22.9 | 1980 ± 216 | 69 ± 6.24 | 1020 ± 51.3 |  |  | 798 ± 24.1 | 39 ± 1.53 |  |  |  |  |  |  |  |
